# Assay results from PMC5681922, “Systemic Responses of Multidrug-Resistant Pseudomonas aeruginosa and Acinetobacter baumannii Following Exposure to the Antimicrobial Peptide Cathelicidin-BF Imply Multiple Intracellular Targets” (Frontiers in Cellular and Infection Microbiology, 2017).
# No end group written: not given here.
# Columns and labels:
# [1] = system: 293FT (human embryonic kidney cells); details: XTT, 24 h, serum-free DMEM
# Experimental: (§1) Cell viability was measured using cell proliferation kit II (XTT) (Roche). Cells, including A549 (adenocarcinomic human alveolar basal epithelial cells), 293FT (human embryonic kidney cells) and L929 (murine fibroblast cells), were cultured in Dulbecco's […] (DMEM) supplemented with 10% fetal bovine serum, 100 U penicillin/mL, and 100 μg streptomycin/mL in a humidified 5% CO2 atmosphere at 37°C. After digestion with trypsin, the cells were diluted in serum-free DMEM without phenol red to a final concentration of 2 × 10^5 cell/mL, seeded in 96 well plates (100 μl/well) and cultured overnight until adhesion. Cathelicidin-BF dissolved in serum-free DMEM without phenol red was added to wells, and the plates were incubated for 24 h as previously described. Subsequent procedures were performed according to the kit. Briefly, XTT labeling reagent (sodium 3′-[1-(phenylaminocarbonyl)-3,4-tetrazolium]-bis-4-methoxy-6-nitro) benzene sulfonic acid hydrate) in Roswell Park Memorial Institute (RPMI) 1640 medium without phenol red was mixed with electron-coupling reagent PMS (N-methyl dibenzopyrazine methyl sulfate) at a volume ratio of 50:1 to make the working solution. Fifty microliters of the XTT labeling mixture was added to each well and incubated at the same conditions for 6 h. Absorbance [A492 nm-A690 nm] stands for the quantification of viable cells.
# (§2) Figure 2 Cytotoxicity of cathelicidin-BF. Hemolysis and cell viability assays were conducted to test the cytotoxicity of cathelicidin-BF to mammalian cells.
# [2] = system: A549 (adenocarcinomic human alveolar basal epithelial cells); details: 400 mg/L; XTT, 24 h, serum-free DMEM
# Experimental: as §1, §2
# [3] = system: L929 (murine fibroblast cells); details: 400 mg/L; XTT, 24 h, serum-free DMEM
# Experimental: as §1, §2
# P. aeruginosa 1409 [4] = experiment: Membrane permeabilization assay (propidium iodide); format: cell-based, Pseudomonas aeruginosa; details: 1 h at 25°C in LB, then PI 10 μg/mL 30 min, fluorescence microscope
# Experimental: Then, PI was added to a final concentration of 10 μg/mL. After 30 min of incubation at 25°C, the cells were washed 3 times with PBS and immediately imaged with a fluorescence microscope (Olympus, Japan) (Yu et al., [2015]).
# Figure 3 Bacterial plasma membrane permeabilization assay of cathelicidin-BF. Cathelicidin-BF and levofloxacin were incubated with MDR P. aeruginosa in Luria-Bertani medium at final concentrations of 4 × MIC (minimal inhibitory concentration) or ¼ × MIC. After incubation at 25°C for 1 h, bacteria were collected by centrifugation at 3,000 × g for 5 min and resuspended with PBS. The DNA-binding fluorescent dye PI was added to a final concentration of 10 μg/mL. After 30 min incubation at 25°C, the cells were washed 3 times with PBS and immediately imaged using a fluorescence microscope.
# P. aeruginosa 1409 [5] = experiment: Minimal inhibitory concentration (given as multiples of MIC); format: cell-based, Pseudomonas aeruginosa; details: MDR clinical isolate; MIC itself not given, only this multiple
sequence,measurement,setting,value
KFFRKLKKSVKKRAKEFFKKPRVIGVSIPF [cathelicidin-BF],concentrations at which proliferation of 293FT cells was inhibited,[1],> 50 µg/mL
same,effect on A549 cells,[2],intact
same,effect on L929 cells,[3],intact
same,"integrity of bacterial membranes, PI staining at 4 × MIC","P. aeruginosa 1409 [4]; 4 × MIC (cathelicidin-BF 32 μg/mL, levofloxacin 64 μg/mL)",showed red fluorescence
same,"integrity of bacterial membranes, PI staining at ¼ × MIC","P. aeruginosa 1409 [4]; ¼ × MIC (cathelicidin-BF 2 μg/mL, levofloxacin 4 μg/mL)",no red dyes were detected
same,4 × MIC,P. aeruginosa 1409 [5],32 µg/mL
